Data as given in patent US10590113B2, “6-hydroxy-4-oxo-1,4-dihydropyrimidine-5-carboxamides as APJ agonists” (priority 2016, dated 2020).

Target: T1, human APJ receptor (Homo sapiens, UniProt P35414)
T1 construct: expressed in transfected cells; host or cells: HEK293
T1 sequence (P35414 1-380): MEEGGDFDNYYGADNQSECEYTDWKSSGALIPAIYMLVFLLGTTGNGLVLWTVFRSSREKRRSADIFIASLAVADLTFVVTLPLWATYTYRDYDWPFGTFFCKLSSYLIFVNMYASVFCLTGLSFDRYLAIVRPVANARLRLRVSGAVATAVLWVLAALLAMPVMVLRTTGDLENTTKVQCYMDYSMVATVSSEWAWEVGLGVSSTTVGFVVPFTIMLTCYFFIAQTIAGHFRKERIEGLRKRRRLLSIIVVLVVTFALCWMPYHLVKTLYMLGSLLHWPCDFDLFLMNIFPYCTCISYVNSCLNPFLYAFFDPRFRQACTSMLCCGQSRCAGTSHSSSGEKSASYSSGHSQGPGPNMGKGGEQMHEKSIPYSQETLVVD
Assay: Intracellular cAMP Accumulation Assay (APJ hcAMP, HTRF)
Format: cell-based
Conditions: not given
Description: Intracellular cAMP Accumulation Assay
HEK293 cells stably expressing human APJ receptor were used to assess the activity of compounds. Cultured cells were detached and resuspended in the cAMP
Homogeneous Time-Resolved Fluorescence (HTRF) assay buffer (Cisbio cat; #62AM4PEJ). The assay was performed in 384-well assay plates (Perkin-Elmer; cat #6008289) according to assay protocol provided by the manufacturer. Serial dilutions of a compound together with assay buffer containing […] IBMX and 2 μM forskolin were added to each well containing 5,000 cells and incubated for 30 minutes at room temperature. Subsequently, cAMP D2 reagent was added in the lysis buffer followed by the EuK antibody (Cisbio; cat #62AM4PEJ) and incubated for 60 min. The fluorescence emission ratio was measured using fluorometer. The intracellular cAMP concentrations (compound-stimulated inhibition of forskolin-mediated cAMP production) were calculated by extrapolation from a standard curve using known cAMP concentrations. The EC50 values were obtained by fitting the data to a sigmoidal concentration-response curve with variable slope.
The EC50 value of each compound is presented at the end of the example description.
The biological activity of the exemplified compounds of this invention determined by the assay described above is shown at the end of each example.

Row | Structure (SMILES) | EC50
1 | CCCCc1nc(=O)c(C(=O)N2CCC(c3ccc(Cl)cn3)C2)c(O)n1-c1c(OC)cccc1OC (stereo not drawn) [Example 1, 2-Butyl-5-(3-(5-chloropyridin-2-yl)pyrrolidine-1-carbonyl)-1-(2,6-dimethoxyphenyl)-6-hydroxypyrimidin-4(1H)-one] | 0.01 to 10 nM
2 | CCCCc1nc(=O)c(C(=O)N2CCC(c3ccncc3)C2)c(O)n1-c1c(OC)cccc1OC (single isomer, unassigned) [Example 47, 2-butyl-1-(2,6-dimethoxyphenyl)-6-hydroxy-5-[3-(pyridin-4-yl)pyrrolidine-1-carbonyl]-1,4-dihydropyrimidin-4-one] | 0.01 to 10 nM

Same assay, conditions: human APJ, cAMP accumulation; potency range class; read-out: hAPJ cAMP EC50 Potency range

Row | Structure (SMILES) | EC50
3 | CCCc1nc(O)c(C(=O)N2CC[C@H](c3ccccc3)C2)c(=O)n1[C@@H](COC)c1ccccc1 [Example 329, 6-hydroxy-3-[(1R)-2-methoxy-1-phenylethyl]-5-[(3R)-3-phenylpyrrolidine-1-carbonyl]-2-propyl-3,4-dihydropyrimidin-4-one] | 10 to 100 nM
4 | CCc1cccc(CC)c1-n1c(-c2ccn(C3CC3)n2)nc(=O)c(C(=O)N2CC[C@@H](c3ccccc3)C2)c1O [Example 316, 2-(1-cyclopropyl-1H-pyrazol-3-yl)-1-(2,6-diethylphenyl)-6-hydroxy-5-[(3S)-3-phenylpyrrolidine-1-carbonyl]-1,4-dihydropyrimidin-4-one] | 0.01 to 10 nM

Now from value to compound:

Row | EC50 | Structure (SMILES)
5 | 0.01 to 10 nM | CCCCc1nc(=O)c(C(=O)N2CCC(c3ncc(Cl)cc3F)C2)c(O)n1[C@@H](COC)c1ccccc1 (stereo partly drawn) [Example 350, 2-butyl-5-[3-(5-chloro-3-fluoropyridin-2-yl)pyrrolidine-1-carbonyl]-6-hydroxy-3-[(1R)-2-methoxy-1-phenylethyl]-3,4-dihydropyrimidin-4-one]
6 | 0.01 to 10 nM | COc1cccc(-c2nc(=O)c(C(=O)N3CCC(c4ncc(Cl)cc4F)C3)c(O)n2-c2c(OC)cccc2OC)c1 (single isomer, unassigned) [Example 261, 5-[3-(5-chloro-3-fluoropyridin-2-yl)pyrrolidine-1-carbonyl]-1-(2,6-dimethoxyphenyl)-6-hydroxy-2-(3-methoxyphenyl)-1,4-dihydropyrimidin-4-one]
7 | 10 to 100 nM | CCc1cccc(CC)c1-n1c(COC(C)C)nc(=O)c(C(=O)N2CCC(c3ccncc3)C2)c1O (single isomer, unassigned) [Example 221, 1-(2,6-diethylphenyl)-6-hydroxy-2-[(propan-2-yloxy)methyl]-5-[3-(pyridin-4-yl)pyrrolidine-1-carbonyl]-1,4-dihydropyrimidin-4-one]
8 | 0.01 to 10 nM | COc1cccc(OC)c1-n1c(-c2ccc(Cl)nc2)nc(=O)c(C(=O)N2CCC(c3ccc(F)cc3F)C2)c1O (single isomer, unassigned) [Example 279, 2-(6-chloropyridin-3-yl)-5-[3-(2,4-difluorophenyl)pyrrolidine-1-carbonyl]-1-(2,6-dimethoxyphenyl)-6-hydroxy-1,4-hydropyrimidin-4-one]
9 | 10 to 100 nM | COc1cccc(OC)c1-n1c(-c2ccc(F)cc2)nc(=O)c(C(=O)N2CCC(c3ccncc3)C2)c1O (single isomer, unassigned) [Example 224, 1-(2,6-dimethoxyphenyl)-2-(4-fluorophenyl)-6-hydroxy-5-[3-(pyridin-4-yl)pyrrolidine-1-carbonyl]-1,4-dihydropyrimidin-4-one]
10 | 0.01 to 10 nM | COc1cccc(OC)c1-n1c(-c2cc(C)ccn2)nc(=O)c(C(=O)N2CCC(c3ccccc3F)C2)c1O (single isomer, unassigned) [Example 239, 1-(2,6-dimethoxyphenyl)-5-[3-(2-fluorophenyl)pyrrolidine-1-carbonyl]-6-hydroxy-2-(4-methylpyridin-2-yl)-1,4-dihydropyrimidin-4-one]

Same assay, conditions: human APJ, intracellular cAMP accumulation; read-out: hAPJ cAMP EC50 Potency range

Row | Structure (SMILES) | EC50
11 | CCCCc1nc(=O)c(C(=O)N2CC[C@@H](c3ccccc3)C2)c(O)n1[C@H](C)C1CC1 [Example 155, 2-butyl-3-[(1R)-1-cyclopropylethyl]-6-hydroxy-5-[(3S)-3-phenylpyrrolidine-1-carbonyl]-3,4-dihydropyrimidin-4-one] | 100 to 300 nM
12 | CC[C@@H](c1cc(F)cc(F)c1)n1c(-c2cnn(C)c2)nc(=O)c(C(=O)N2CCC(c3ccc(Cl)cn3)C2)c1O (single isomer, unassigned) [Example 187] | 0.01 to 10 nM
13 | CCCCc1nc(=O)c(C(=O)N2CC[C@H](OCc3ccccc3)C2)c(O)n1-c1c(OC)cccc1OC [Example 63, 5-[(3S)-3-(benzyloxy)pyrrolidine-1-carbonyl]-2-butyl-1-(2,6-dimethoxyphenyl)-6-hydroxy-1,4-dihydropyrimidin-4-one] | 0.01 to 10 nM
14 | CC[C@@H](c1cc(F)cc(F)c1)n1c(-c2ccn(C)n2)nc(=O)c(C(=O)N2CCC(c3ncccc3F)C2)c1O (single isomer, unassigned) [Example 189] | 0.01 to 10 nM
15 | CCCCc1nc(=O)c(C(=O)N2CCC(c3ccc(F)cc3)CC2)c(O)n1-c1c(OC)cccc1OC [Example 74, 2-butyl-1-(2,6-dimethoxyphenyl)-5-[4-(4-fluorophenyl)piperidine-1-carbonyl]-6-hydroxy-1,4-dihydropyrimidin-4-one] | 10 to 100 nM
16 | COc1cccc(OC)c1-n1c(COC(C)C)nc(=O)c(C(=O)N2CCC(c3ccccc3C)C2)c1O (single isomer, unassigned) [Example 105, 1-(2,6-dimethoxyphenyl)-6-hydroxy-5-[3-(2-methylphenyl)pyrrolidine-1-carbonyl]-2-[(propan-2-yloxy)methyl]-1,4-dihydropyrimidin-4-one] | 0.01 to 10 nM
17 | CC[C@@H](c1cc(F)cc(F)c1)n1c(-c2ccn(C)n2)nc(=O)c(C(=O)N2CCC(c3ccccc3F)C2)c1O (single isomer, unassigned) [Example 193] | 0.01 to 10 nM
18 | CCCCc1nc(=O)c(C(=O)N2CCC(c3ccccc3F)C2)c(O)n1-c1c(OC)cccc1OC (single isomer, unassigned) [Example 52, 2-butyl-1-(2,6-dimethoxyphenyl)-5-[3-(2-fluorophenyl)pyrrolidine-1-carbonyl]-6-hydroxy-1,4-dihydropyrimidin-4-one] | 0.01 to 10 nM
19 | CC[C@@H](c1cc(F)cc(F)c1)n1c(-c2cnn(C)c2)nc(=O)c(C(=O)N2CCC(c3ccc(F)cn3)C2)c1O (single isomer, unassigned) [Example 191] | 0.01 to 10 nM

The remaining lines, values ahead:

Row | EC50 | Structure (SMILES)
20 | 0.01 to 10 nM | CCc1cccc(CC)c1-n1c(COC(C)C)nc(=O)c(C(=O)N2CC[C@H](c3ccccc3)C2)c1O [Example 17, (R)-3-(2,6-diethylphenyl)-6-hydroxy-2-(isopropoxymethyl)-5-(3-phenylpyrrolidine-1-carbonyl)pyrimidin-4(3H)-one]
21 | 10 to 100 nM | CCCCc1nc(=O)c(C(=O)N2CC[C@H](c3ccccc3)C2)c(O)n1C(c1ccccc1)C(C)C (stereo partly drawn) [Example 130, 2-butyl-6-hydroxy-3-(2-methyl-1-phenylpropyl)-5-[(3R)-3-phenylpyrrolidine-1-carbonyl]-3,4-dihydropyrimidin-4-one]
22 | 0.01 to 10 nM | CCCCc1nc(=O)c(C(=O)N2CC[C@H](c3ccccc3)C2)c(O)n1-c1c(OC)ncnc1OC [Example 113, 2-butyl-3-(4,6-dimethoxypyrimidin-5-yl)-6-hydroxy-5-[(3R)-3-phenylpyrrolidine-1-carbonyl]-3,4-dihydropyrimidin-4-one]
23 | 0.01 to 10 nM | CC[C@@H](c1cc(F)cc(F)c1)n1c(-c2ccn(CC)n2)nc(=O)c(C(=O)N2CCC(c3ncc(F)cc3F)C2)c1O (single isomer, unassigned) [Example 192]
24 | 0.01 to 10 nM | COc1cccc(OC)c1-n1c(CCC2CC2)nc(=O)c(C(=O)N2CCC(c3ccc(Cl)cn3)C2)c1O (single isomer, unassigned) [Example 170, 5-[3-(5-chloropyridin-2-yl)pyrrolidine-1-carbonyl]-2-(2-cyclopropylethyl)-1-(2,6-dimethoxyphenyl)-6-hydroxy-1,4-dihydropyrimidin-4-one]
25 | 0.01 to 10 nM | CCCCc1nc(=O)c(C(=O)N2CCN(Cc3cccc(F)c3)CC2)c(O)n1-c1c(OC)cccc1OC [Example 69, 2-butyl-1-(2,6-dimethoxyphenyl)-5-{4-[(3-fluorophenyl)methyl]piper-azine-1-carbonyl}-6-hydroxy-1,4-dihydropyrimidin-4-one]

Same assay, conditions: read-out: hAPJ cAMP EC50 Potency range

Row | EC50 | Structure (SMILES)
26 | 0.01 to 10 nM | CCCCc1nc(=O)c(C(=O)N2CCC(c3ncccc3F)C2)c(O)n1-c1c(OC)cccc1OC (single isomer, unassigned) [Example 367, 2-butyl-1-(2,6-dimethoxyphenyl)-5-(3-(3-fluoropyridin-2-yl)pyrrolidine-1-carbonyl)-6-hydroxypyrimidin-4(1H)-one]
27 | 0.01 to 10 nM | CCCCc1nc(=O)c(C(=O)N2CCC(Oc3cc(F)cc(F)c3Cl)CC2)c(O)n1-c1c(OC)cccc1OC [Example 386, 2-butyl-5-(4-(2-chloro-3,5-difluorophenoxy)piperidine-1-carbonyl)-1-(2,6-dimethoxyphenyl)-6-hydroxypyrimidin-4(1H)-one]
